The values that follow come from US9072729B2, “Method for treating fibrosis and cancer with imidazolium and imidazolinium compounds” (Agency for Science, Technology and Research, priority 2008, dated 2015).

As a reminder, the IC50 is the concentration that gives 50% inhibition.

One assay relates to U87 MG. Description: Caspase 3/7 activity in U87 MG. Type of assay: cell-based, human. To be noted: 2 mM, 6 hr. As to the method:
(§1) FIG. 30. DBZIM inhibited cell proliferation in glioma cell line C6 (A) and U87 MG (C) and induced caspase 3/7 activity in C6 (B) and U87 MG (D). C6 or U87 cells were incubated with DBZIM of various concentrations for 48 hr for proliferation assay and 6 hr for caspase 3/7 activation assay. Proliferation was measured using MTS kit from Promega and expressed as relative cell proliferation with control group was normalized to 1. Caspase 3/7 activity was quantified using a kit from Promega and also expressed as relative caspase 3/7 activity of treated groups over control group.
Capspase 3/7 activity and lactate dehydrogenase (LDH) release were measured by Fluorometric assays (Promega Corp., WI, USA). The HCC cells were cultured in 96-well plate and treated with DBZIM of various concentrations for 6 hr before assays. For caspase 3/7 assay, medium was removed and substrate buffer was added to lyse the cell and react with caspase 3/7 to give rise to fluorescence signal which was read at Ex=485 nm and Em=530 nm on a Tecan Safire II plate reader after 1 hr incubation. The caspase 3/7 activity of sample cells with the compound treatment was expressed as relative fold change after normalizing to the control cells. The LDH assay (indicative of membrane integrity) was performed using a Kit from Promega Corp according to manufactor's instructions.

A further assay has as its system C6. Kind of assay: Proliferation assay (MTS), glioma C6. The assay is classed as cell-based. To be noted: Rattus norvegicus, 48 h; C6, determined at day 2. On the procedure: as §1
Proliferation of Glioma cell lines: U87 MG and C6 under the treatment of DBZIM was examined using 3-(4,5-dimethylthiazol-2-yl)-5-(3-carboxymethoxyphenyl)-2-(4-sulfophenyl)-2H-tetrazolium (MTS) based proliferation assay kit (Promega, Wis., USA). MTS reagent was added to the control and treated cells (after 48 hr) directly and the absorbance signal was read at 490 nm using a Tecan Safire II plate reader.

The test system of assay [1] is HLE cells. Kind of assay: Annexin V staining and flow cytometry, HLE. Type of assay: cell-based, human. The note with it: 24 hr, TRAIL 100 ng/ml. On the procedure:
FIG. 22. […] HLE or HepG2 cells were incubated with DBZIM of various concentrations for 6 hr, and assayed for caspase 3/7 activity and LDH releasing (expressed as % toxicity). DBZIM induced apoptosis as characterized by annexin V staining using flow cytometer in HLE (E) and HepG2 (F). Scatter plot and histogram gave the representative information on the cell population distribution while bar graphs quantified the percentage of apoptotic cells from the histogram. HLE and HepG2 cells were treated by DBZIM of various concentrations for 24 hr before harvesting for annexin V staining and flow cytometric analysis.
HLE and HepG2 cells were treated with various concentrations of DBZIM or TRAIL (100 ng/ml) for 24 hr, harvested and labeled with Annexin V-FITC (BioVision, CA, USA). The labeled cells were analysed by flow cytometry FACSCalibur ([…], NJ, USA) and CellQuest software. Cells showing green staining in the plasma membrane were considered as apoptotic cells.
Background: Flow cytometry measures light scatter and fluorescence of single cells or particles in a stream.

The test system of a further assay is survivin in HLE cells. Description: Survivin translocation assay (HCS). Type of assay: cell-based, human. The note with it: 24 hr. On the procedure: FIG. 25. DBZIM induced nucleus to cytoplasm translocation of survivin protein. (A) Representative immunocytostaining images of HLE cells treated by DBZIM (0 and 1.0 mM) for 24 hr. Arrows indicate the accumulation and the disappearance of survivin in the nucleus of the control and the DBZIM-treated cells, respectively. The images were acquired and analyzed using ArrayScan VTI HCS reader (Thermal Scientific, PA, USA) and Target Activation BioApplication software. (B) Quantitation of translocation event. Cells were grown in 96-well plate and treated by DBZIM of various concentrations for 24 hr before fixation and immunocytostaining for survivin. Lower value in “Cytoplasmic-Nuclear Difference” indicated a lower amount of cytoplasmic survivin.
HLE cells cultured in 96-well plate were treated with DBZIM for 24 hr before staining and imaging. Cells were then fixed and stained with antibodies against […] and Survivin. (Lab Vision Corp. CA, USA) and buffer reagent from Hitkit (Thermo Scientific, IL, USA). The cells were imaged and analyzed on ArrayScan VTI HCS reader (Thermal Scientific, PA, USA). Fluorescence intensity in the cytoplasmic and nuclear area was plotted for indication of cytoplasm to nucleus translocation.

For assay [2], the system named is HLE cells. Description: HLE cell proliferation assay (cell count, BrdU; HCS). Type of assay: cell-based, human. The note with it: 0-1.25 mM, 48 h. As to the method: FIG. 21. DBZIM inhibited cell proliferation and disrupted cell cycle in HLE cells (A). DBZIM inhibited HCC cell proliferation. HLE cells were seeded at a density of 5000 cells/well in 96-well plate, and cultured for 18-24 h in 10% […] DMEM before the addition of various compounds (0-1.25 mM) in 10% FBS DMEM for 48 h of proliferation before assaying. Cell count was calculated based on Hoechst dye staining and BrdU incorporation was based on the total fluorescence intensity of antibody staining. (B). DBZIM arrested HCC cells at G0/G1 phase. HLE cells were incubated with DBZIM (0, 1, 3 mM) for 24 hr before fixation and DAPI staining for DNA content (2N vs. 4N) determination.
HLE cells were grown, treated by compounds in 6 replicates for 48 hr in a 96-well plate. Cells were then fixed by using 4% paraformaldehyde and stained by DAPI and BrdU antibody using Hitkit (Thermo Scientific, IL, USA). Cells were imaged and analyzed on ArrayScan VTI HCS reader (Thermal Scientific, PA, USA). Cell numbers were counted based on nuclear staining and BrdU incorporation was determined and expressed as percentage of positively stained cells.
The effect of DBZIM on the HCC cell proliferation and cell cycle was characterized on a high-content screening (HCS) platform. Under each concentration, at lease 1000 cells were analyzed. […]

The next assay relates to caspase-3/9 and PARP. Kind of assay: Western blot of caspase-3, caspase-9 and PARP in MCF-7 and AGS. The assay is classed as cell-based, human. To be noted: 50 μM. On the procedure: FIG. 31. DBZIM induces cleavage of caspase-3, caspase-9 and PARP as indication of apoptosis. Western blot analysis for the effect of DBZIM, on the cleavage of caspase-3, Caspase-9 and PARP A) in p53 wild type gastric cancer cell AGS and B) in p53 wild type breast cancer cell line MCF-7. Western blot analysis conducted on cells after 72 h exposure to 50 μM of DBZIM.
To determine whether cells undergo apoptosis, Western blotting was first performed for a caspase-3/9 and PARP activation with proteins from MCF-7 and AGS treated with DBZIM. […] Similarly we observed a DBZIM-induced elevation of caspase 3/7 in C6 (by 3 folds at 2.0 mM) and in U87 MG (by 17 folds at 2 mM) (FIGS. 30B and 30D).

As for `[Br-].c1ccc(Cn2cc[n+](Cc3ccccc3)c2)cc1` [DBZIM, 1,3-bisbenzylimidazolium bromide], the “elevation of caspase 3/7” value in the assay on U87 MG turned out to be 17 folds. Half-maximal inhibition in the assay with C6 (IC50) was put at 1 mM. Further, the “apoptosis (annexin V staining)” value with HLE cells [1] was “dose-dependently induced apoptosis”. Further, the survivin translocation result in the assay with survivin in HLE cells is “translocated from the nucleus to the cytoplasm”. In the assay with HLE cells [2], the “HLE cell proliferation (total cell number, BrdU positive cells)” value is “inhibited the HLE cell proliferation”. Further, the “caspase-3/9 and PARP activation” value in the assay on caspase-3/9 and PARP is “time-dependently increased caspase-3/9 and PARP activity”.
